According to patent US11905230B2, “Phenoxyacetic acid derivatives, preparation method thereof and use thereof as medicament” (CHINA PHARMACEUTICAL UNIVERSITY, priority 2017, dated 2024):

How the values were obtained:
hGPR40 receptor = hGPR40 receptor (Homo sapiens (Human), UniProt O14842); assay: agonistic activity on hGPR40-CHO stably transfected cells (Fluo-4 / FLIPR); assay type: cell-based; details: for activation at 0.1 µM / Agonistic activity at 100 nM (%): 100 nM, relative to linoleic acid well; for EC50: mean ± SD of three determinations
Experimental: Experimental example 1 The agonistic activity of the compounds of the present invention on hGPR40-CHO stably transfected cells
The present invention used the following method to determine the GPR40 agonistic activity of the compounds of the invention:
hGPR40-CHO stably transfected cells were seeded into a 96-well plate at a density of 3×10^4/well, and incubated overnight in a 37° C., 5% CO2 cell incubator; the medium was discarded, 100 μl of HBSS was added to each well, and 100 μl of Fluo-4 dye solution containing Probenecid was added and incubated at 37° C. for 90 min. After the incubation, the Fluo-4 dye solution was sucked out, 100 μl of HBSS buffer was added, and the dye was washed away; 100 μl of HBSS containing Probenecid was added to each well, and incubated at 37° C. for 10 min; different concentrations of drugs were added to each well of the 96-well plate and FLIPR (Molecular Devices) was used for readings according to the parameter setting table. The experimental results were analyzed.

[1] = Evaluation of hepatotoxicity: serum ALT, AST and TBIL after 4 weeks of dosing; assay type: in vivo; details: for ALT (IU/L) / AST (IU/L) / TBIL (IU/L): serum, once a day for consecutive 4 weeks, x ± SD, n = 6; for AST, ALT and TBIL compared with STZ (blank) group (in words): 4 weeks of dosing
Experimental: Experimental example 3 Evaluation of hepatotoxicity of the compounds of the present invention:
The test compounds were administered once a day for consecutive 4 weeks, blood was taken, and the contents of alanine aminotransferase (ALT), aspartate aminotransferase (AST), and total bilirubin (TBIL) were measured.

normal mice = assay: Oral glucose tolerance test (OGTT) in normal mice; assay type: in vivo, Kunming mice; details: for blood glucose level at 15 min / blood glucose level at 0 min / blood glucose level at 30 min / blood glucose level at 60 min / blood glucose level at 120 min: 20 mg/kg by gavage, in mmol/L (unit assumed); for blood glucose level at 15 min: 15 min after glucose load; for blood glucose level at 0 min: 30 min after dosing, before glucose load; for blood glucose level at 30 min: 30 min after glucose load; for blood glucose level at 60 min: 60 min after glucose load; for blood glucose level at 120 min: 120 min after glucose load; for effect on oral glucose tolerance in mice (in words): OGTT in normal mice, 20 mg/kg
Experimental: Experimental example 2 In vivo hypoglycemic activity of the compounds of the present invention can be determined by using an assay system as described below:
The mice were fasted for 12 hours before experiment and water was taken freely, each group was administrated by gavage, blood was taken from the tail, and the blood glucose level was measured (recorded as −30 min).

Sequence of hGPR40 receptor (O14842 whole entry): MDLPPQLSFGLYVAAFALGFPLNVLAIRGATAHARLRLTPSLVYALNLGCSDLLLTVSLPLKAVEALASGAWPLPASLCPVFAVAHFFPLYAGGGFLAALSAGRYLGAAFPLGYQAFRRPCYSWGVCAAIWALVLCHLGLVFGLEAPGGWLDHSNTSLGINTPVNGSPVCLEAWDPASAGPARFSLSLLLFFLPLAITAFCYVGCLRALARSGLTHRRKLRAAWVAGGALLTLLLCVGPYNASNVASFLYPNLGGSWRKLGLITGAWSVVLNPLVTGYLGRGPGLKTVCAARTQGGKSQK

CCCOc1cc(C)c(-c2cccc(CNc3ccc(OCC(=O)O)c(F)c3)c2)c(C)c1 [Compound I-9, 2-(4-((4′-propoxy-2′,6′-dimethyl-[1,1′-biphenyl]-3-methylene)amino)-2-fluorophenoxy) acetic acid]
activation at 0.1 µM (hGPR40 receptor): 67%

COc1cc(C)c(-c2cccc(CNc3ccc(OCC(=O)O)c(F)c3)c2)c(C)c1 [Compound I-20, 2-(4-((4′-methoxy-2′,6′-dimethyl-[1,1′-biphenyl]-3-methylene)amino)-2-fluorophenoxy)acetic acid]
activation at 0.1 µM (hGPR40 receptor): 68%

CCCOc1ccc(-c2cccc(CNc3ccc(OCC(=O)O)c(F)c3)c2)c(C)c1 [Compound I-15]
activation at 0.1 µM (hGPR40 receptor): 75%
EC50 (hGPR40 receptor): 0.0284 ± 0.0028 µM

Cc1cc(OCCCS(C)(=O)=O)cc(C)c1-c1cccc(CNc2ccc(OCC(=O)O)c(F)c2)c1 [Compound I-12]
activation at 0.1 µM (hGPR40 receptor): 68%

CCOCOc1cc(C)c(-c2cccc(CNc3ccc(OCC(=O)O)cc3)c2)c(C)c1 [Compound I-41, 2-(4-((4′-(2-ethoxymethoxy)-2′,6′-dimethyl-[1,1′-biphenyl]-3-methylene)amino)phenoxy)acetic acid]
melting point: 128 to 131 °C
activation at 0.1 µM (hGPR40 receptor): 59%

O=C(O)COc1ccc(NCc2cccc(-c3ccccc3)c2)cc1F [Compound I-11, 2-(4-(([1,1′-biphenyl]-3-methylene)amino)-2-fluorophenoxy)acetic acid]
activation at 0.1 µM (hGPR40 receptor): 46%

CCCCCCOc1cc(C)c(-c2cccc(CNc3ccc(OCC(=O)O)c(F)c3)c2)c(C)c1 [Compound I-42, 2(2-fluoro-4-(((4′-(hexyloxy)-2′,6′-dimethyl-[1,1′-biphenyl]-3-yl)methyl)amino)phenoxy)acetic acid]
melting point: 132 to 135 °C

CCOc1ccc(-c2cccc(CNc3ccc(OCC(=O)O)cc3)c2)c(C)c1 [Compound I-31]
activation at 0.1 µM (hGPR40 receptor): 79%

CCOc1cc(C)c(-c2cccc(CNc3ccc(OCC(=O)O)c(F)c3)c2)c(C)c1 [Compound I-1, 2-(4-((4′-ethoxy-2′,6′-dimethyl-[1,1′-biphenyl]-3-methylene)amino)-2-fluorophenoxy) acetic acid]
activation at 0.1 µM (hGPR40 receptor): 79%

COc1ccc(-c2cccc(CNc3ccc(OCC(=O)O)c(F)c3)c2)c(C)c1 [Compound I-19]
ALT (IU/L) [1]: 50.33 ± 4.6 IU/L
AST (IU/L) [1]: 123.45 ± 7.8 IU/L
TBIL (IU/L) [1]: 2.68 ± 0.3 IU/L
activation at 0.1 µM (hGPR40 receptor): 80%
EC50 (hGPR40 receptor): 0.0184 ± 0.0022 µM
blood glucose level at 15 min (normal mice; OGTT, n = 8): 9.08 ± 0.62
blood glucose level at 0 min (normal mice; OGTT, n = 8): 4.45 ± 0.56
blood glucose level at 30 min (normal mice; OGTT, n = 8): 8.21 ± 0.39
blood glucose level at 60 min (normal mice; OGTT, n = 8): 5.23 ± 0.21
blood glucose level at 120 min (normal mice; OGTT, n = 8): 4.41 ± 0.44

Cc1cc(OC(F)(F)F)cc(C)c1-c1cccc(CNc2ccc(OCC(=O)O)cc2)c1 [Compound I-29, 2-(4-((4′-trifluoromethoxy-2′,6′-dimethyl-[1,1′-biphenyl]-3-methylene)amino)phenoxy)acetic acid]
Agonistic activity at 100 nM (%) (hGPR40 receptor): 62%

O=C(O)COc1ccc(NCc2cccc(-c3ccccc3C(F)(F)F)c2)cc1 [Compound I-28, 2-(4-((2′-trifluoromethyl-[1,1′-biphenyl]-3-methylene)amino)phenoxy)acetic acid]
ALT (IU/L) [1]: 49.36 ± 7.8 IU/L
AST (IU/L) [1]: 119.68 ± 7.3 IU/L
TBIL (IU/L) [1]: 2.57 ± 0.5 IU/L
Agonistic activity at 100 nM (%) (hGPR40 receptor): 81%
EC50 (hGPR40 receptor): 0.0179 ± 0.0029 µM
effect on oral glucose tolerance in mice (in words) (normal mice): significantly improve oral glucose tolerance
blood glucose level at 15 min (normal mice; OGTT, n = 8): 8.59 ± 0.38
blood glucose level at 0 min (normal mice; OGTT, n = 8): 4.56 ± 0.48
blood glucose level at 30 min (normal mice; OGTT, n = 8): 7.43 ± 0.56
blood glucose level at 60 min (normal mice; OGTT, n = 8): 5.30 ± 0.26
blood glucose level at 120 min (normal mice; OGTT, n = 8): 4.21 ± 0.45
blood glucose level at −30 min (normal mice; OGTT, fasted mice, before dosing, x ± SD, n = 8): 4.35 ± 0.36

COCCOc1cc(C)c(-c2cccc(CNc3ccc(OCC(=O)O)c(F)c3)c2)c(C)c1 [Compound I-10]
activation at 0.1 µM (hGPR40 receptor): 62%

O=C(O)COc1ccc(NCc2cccc(-c3ccccc3Cl)c2)cc1F [Compound I-2, 2-(4-((2′-chloro-[1,1′-biphenyl]-3-methylene)amino)-2-fluorophenoxy)acetic acid]
AST, ALT and TBIL compared with STZ (blank) group (in words) [1]: equivalent to the blank group
ALT (IU/L) [1]: 47 ± 5.3 IU/L
AST (IU/L) [1]: 118.43 ± 11.5 IU/L
TBIL (IU/L) [1]: 2.61 ± 0.5 IU/L
activation at 0.1 µM (hGPR40 receptor): 84%
EC50 (hGPR40 receptor): 0.0163 ± 0.0046 µM
effect on oral glucose tolerance in mice (in words) (normal mice): significantly improve oral glucose tolerance
blood glucose level at 15 min (normal mice; OGTT, n = 8): 6.24 ± 0.39
blood glucose level at 0 min (normal mice; OGTT, n = 8): 4.25 ± 0.38
blood glucose level at 30 min (normal mice; OGTT, n = 8): 6.73 ± 0.29
blood glucose level at 60 min (normal mice; OGTT, n = 8): 4.28 ± 0.37
blood glucose level at 120 min (normal mice; OGTT, n = 8): 4.17 ± 0.52

Cc1ccc(-c2cccc(CNc3ccc(OCC(=O)O)c(F)c3)c2)c(Cl)c1 [Compound I-5, 2-(4-((2′-chloro-4′-methyl-[1,1′-biphenyl]-3-methylene)amino)-2-fluorophenoxy)acetic acid]
activation at 0.1 µM (hGPR40 receptor): 73%

O=C(O)COc1ccc(NCc2cccc(-c3ccccc3C(F)(F)F)c2)cc1F [Compound I-8, 2-(4-((2′-trifluoromethyl-[1,1′-biphenyl]-3-methylene)amino)-2-fluorophenoxy)acetic acid]
AST, ALT and TBIL compared with STZ (blank) group (in words) [1]: equivalent to the blank group
ALT (IU/L) [1]: 46.63 ± 6.2 IU/L
AST (IU/L) [1]: 112.85 ± 17.76 IU/L
TBIL (IU/L) [1]: 2.52 ± 0.3 IU/L
activation at 0.1 µM (hGPR40 receptor): 86%
EC50 (hGPR40 receptor): 0.0117 ± 0.0048 µM
effect on oral glucose tolerance in mice (in words) (normal mice): significantly improve oral glucose tolerance
blood glucose level at 15 min (normal mice; OGTT, n = 8): 6.73 ± 0.65
blood glucose level at 0 min (normal mice; OGTT, n = 8): 4.46 ± 0.47
blood glucose level at 30 min (normal mice; OGTT, n = 8): 6.82 ± 0.58
blood glucose level at 60 min (normal mice; OGTT, n = 8): 5.17 ± 0.39
blood glucose level at 120 min (normal mice; OGTT, n = 8): 4.26 ± 0.25

CC(C)c1ccccc1-c1cccc(CNc2ccc(OCC(=O)O)c(F)c2)c1 [Compound I-16]
activation at 0.1 µM (hGPR40 receptor): 63%

CCCCCCOc1cc(C)c(-c2cccc(CNc3ccc(OCC(=O)O)cc3)c2)c(C)c1 [Compound I-43, 2(4-(((4′-(hexyloxy)-2′,6′-dimethyl-[1,1′-biphenyl]-3-yl)methyl)amino)phenoxy)acetic acid]
melting point: 130 to 132 °C

Cc1cc(OC(F)(F)F)ccc1-c1cccc(CNc2ccc(OCC(=O)O)cc2)c1 [Compound I-30, 2-(4-((4′-trifluoromethoxy-2′-methyl-[1,1′-biphenyl]-3-methylene)amino)phenoxy)acetic acid]
Agonistic activity at 100 nM (%) (hGPR40 receptor): 76%

Cc1cc(OC2CCCCC2)cc(C)c1-c1cccc(CNc2ccc(OCC(=O)O)c(F)c2)c1 [Compound I-44, 2(2-fluoro-4-(((4′-(cyclohexyloxy)-2′,6′-dimethyl-[1,1′-biphenyl]-3-yl)methyl)amino)phenoxy)acetic acid]
melting point: 136 to 138 °C

CCOc1cc(C)c(-c2cccc(CNc3ccc(OCC(=O)O)cc3)c2)c(C)c1 [Compound I-17, 2-(4-((4′-ethoxy-2′,6′-dimethyl-[1,1′-biphenyl]-3-methylene)amino)phenoxy)acetic acid]
Agonistic activity at 100 nM (%) (hGPR40 receptor): 70%

O=C(O)COc1ccc(NCc2cccc(-c3ccccc3F)c2)cc1F [Compound I-4, 2-(4-((2′-fluoro-[1,1′-biphenyl]-3-methylene)amino)-2-fluorophenoxy)acetic acid]
activation at 0.1 µM (hGPR40 receptor): 65%

Cc1cc(OCCCS(C)(=O)=O)cc(C)c1-c1cccc(COc2ccc3c(c2)OC[C@H]3CC(=O)O)c1 [TAK-875, reference compound]
AST, ALT and TBIL compared with STZ (blank) group (in words) [1]: AST was higher than STZ group
ALT (IU/L) [1]: 72.83 ± 8.4 IU/L
AST (IU/L) [1]: 149.33 ± 15.6 IU/L
TBIL (IU/L) [1]: 2.98 ± 0.4 IU/L
Agonistic activity at 100 nM (%) (hGPR40 receptor): 65%
blood glucose level at 15 min (normal mice; OGTT, n = 8): 9.68 ± 0.46
blood glucose level at 0 min (normal mice; OGTT, n = 8): 4.53 ± 0.25
blood glucose level at 30 min (normal mice; OGTT, n = 8): 8.61 ± 0.45
blood glucose level at 60 min (normal mice; OGTT, n = 8): 5.47 ± 0.56
blood glucose level at 120 min (normal mice; OGTT, n = 8): 4.46 ± 0.57

CCOc1ccc(-c2cccc(CNc3ccc(OCC(=O)O)c(F)c3)c2)c(C)c1 [Compound I-13]
AST, ALT and TBIL compared with STZ (blank) group (in words) [1]: equivalent to the blank group
ALT (IU/L) [1]: 52.37 ± 5.3 IU/L
AST (IU/L) [1]: 121.37 ± 13.2 IU/L
TBIL (IU/L) [1]: 2.48 ± 0.5 IU/L
activation at 0.1 µM (hGPR40 receptor): 85%
EC50 (hGPR40 receptor): 0.0146 ± 0.0037 µM
effect on oral glucose tolerance in mice (in words) (normal mice): significantly improve oral glucose tolerance
blood glucose level at 15 min (normal mice; OGTT, n = 8): 7.25 ± 0.58
blood glucose level at 0 min (normal mice; OGTT, n = 8): 4.61 ± 0.35
blood glucose level at 30 min (normal mice; OGTT, n = 8): 7.03 ± 0.89
blood glucose level at 60 min (normal mice; OGTT, n = 8): 5.25 ± 0.72
blood glucose level at 120 min (normal mice; OGTT, n = 8): 4.38 ± 0.37
